Source: patent publication US20230097883A1, “ERGOTHIONEINE PET COMPOUNDS AND METHODS OF USE THEREOF” (VANDERBILT UNIVERSITY, priority 2021, published 2023)

Assays:
Format in all cases: in vivo, mouse
5XFAD mice [1] = assay: Rotarod after ERGO treatment; settings: ERGO-treated 5XFAD versus non-treated 5XFAD and WT, three days of testing
Protocol: (§1) To address our primary question whether longitudinal consumption of ERGO as a potent antioxidant benefit the brain, three cohorts of animals (n=12 non-treated WT control, n=12 non-treated 5XFAD, and n=18 ERGO-treated 5XFAD) were used (FIG. 3.2A). Starting at the age of 8 weeks, the animals were treated with high doses of ERGO solution (25-50 mg/Kg) formulated in double distilled (dd) water via oral gavage three times a week over the course of eight weeks. To reduce bias in the behavioral experiments with regard to the potential stress during gavage treatment, non-treated animals underwent the identical gavage process with the vehicle, water, only. The efficacy of the therapy was evaluated by behavioral testing, followed by three different non-invasive PET imaging sessions to assess biomarkers related to AD pathology. In addition to assessing Abeta levels and glucose metabolism using the [^11C]PIB and [^18F]FDG probes, respectively; we also tested for the first time whether oxidative stress could be used as an indicator of response to therapy using the [^11C]ERGO PET radioligand. Finally, animals were euthanized, and the brains were collected for immunohistochemical analysis. […]
Neuromuscular ability and motor learning were assessed using a standard rotarod (Ugo Basile). […] Time to fall was recorded automatically when mice fell from the rod onto a base plate.

5XFAD mice [2] = assay: Conditioned fear task after ERGO treatment; settings: ERGO-treated 5XFAD mice, novel context, 25 hours following training
Protocol: as §1
Mice were placed in a sound-attenuating chamber with a wire grid floor capable of transmitting an electric shock. All movements were monitored by cameras fixed to the inside of the doors. […]

Abeta [3] = assay: [11C]PIB PET imaging of Abeta levels after ERGO treatment
Protocol: as §1, with “pathology.” for “pathology. In addition to assessing Abeta levels and glucose metabolism using the [^11C]PIB and [^18F]FDG probes, respectively; we also tested for the first time whether oxidative stress could be used as an indicator of response to therapy using the [^11C]ERGO PET radioligand. Finally, animals were euthanized, and the brains were collected for immunohistochemical analysis.”
Non-invasive, in vivo, and robust assessment of Abeta levels in the brains of treated and non-treated 5XFAD mice were performed using the [^11C]PIB PET probe, the chemical structure of which has been described elsewhere. […] We co-registered the PET/CT image to an MRI template for quantitative PET analysis of regional uptake in the brain. […]

Abeta [4] = assay: Abeta immunohistochemistry (6E10 antibody) of brain sections after ERGO treatment; settings: ERGO-treated versus non-treated 5XFAD mice, approx. 4 months of age
Protocol: To confirm the in vivo observations, animals were perfused, and the brain sections were stained with anti-Abeta antibody, 6E10. […] In particular, we observed a clear difference in the hippocampus, pyramidal cortex and thalamus of non-treated compared to ERGO-treated 5XFAD mice (FIG. 3L, 3.30, 3.3R).
(§2) Quantitative analysis of the PET imaging and IHC data was performed using imageJ software. The data was imported to GraphPad Prism version 9 for Mac (GraphPad Software, San Diego, Calif., USA) for statistical analysis. Differences between groups were tested using unpaired t-test.

IBA1-positive microglia = assay: IBA1 immunohistochemistry of brain sections after ERGO treatment; settings: ERGO-treated versus non-treated 5XFAD mice
Protocol: In this study, after the PET imaging, animals (non-treated 5XFAD (n=3) and ERGO-treated 5XFAD mice (n=5)) were perfused, and the brain sections were stained with antibodies against GFAP and IBA1 for neuroinflammatory markers astrocytes and microglia, respectively.
as §2

With `C[N+](C)(C)[C@@H](Cc1c[nH]c(=S)[nH]1)C(=O)[O-]` [ERGO, L-ergothioneine] the “rotarod latency to fall, group differences” value (5XFAD mice [1]) was “no differences among the groups”, the “cue-based recall, freezing time while the cue was played” value (5XFAD mice [2]) was roughly 50% and the “[11C]PIB PET signal in brain” value (Abeta [3]; ERGO-treated 5XFAD, 4-month-old, n=7, ~15 MBq [11C]PIB) was “very weak, and resembled the background signal found in WT mice”. The “[11C]PIB % ID/g higher in non-treated 5XFAD compared to treated counterparts, every brain subregion” value (Abeta [3]; non-treated n=5 versus ERGO-treated n=7 5XFAD mice) was 30-50%, the “decrease in Abeta level (pixel counts), hippocampus” value (Abeta [4]) was 4 fold and the “decrease in Abeta level (pixel counts), pyramidal cortex” value (Abeta [4]) was 5 fold. For the same compound, the “decrease in Abeta level (pixel counts), thalamus” value (Abeta [4]) was 2 fold and the “reduction of IBA1-positive microglia” value (IBA1-positive microglia) was roughly 80%.
